The test system of one experiment is Ras processing. The experiment in a line: Immunoblot of unprocessed and processed Ras in cancer cell lines. In kind it is cell-based, human. To be noted: H838 cells, competition assay, 24 h. As to the method:
FIG. 2A-C show illustrative effective results of the exemplary Compound 1 inhibiting Ras processing in cancer cell lines. (2A) A549 and H838 cells were treated with different concentrations of Compound 1 and grown under serum (10% FBS) or serum-free (no FBS) conditions for 24 h. (2B) H838, (2C) HepG2 and K562 cells were treated with different concentrations of Compound 1 and grown under serum-free (no FBS) conditions for 24 h. Whole cell lysates were then immunoblotted with a Ras antibody. A duplicate membrane was probed with a GAPDH antibody. The relative expression level of unprocessed to processed Ras was quantified by densitometry. The experiments were conducted three times. […]
FIG. 3A-C show illustrative effective results of Compound 1 inhibiting the prenylation activity of farnesyltransferase in vitro and competes with FPP within cells. […] The relative expression level of unprocessed to processed Ras was quantified by densitometry. […]
Sixty micrograms of total protein lysates measured using a Bradford assay (Sigma-Aldrich, St. Louis, Mo., USA) were resolved on 12.5% SDS-polyacrylamide gels. […] Secondary antibodies were conjugated to horseradish peroxidase, which was detected using a 3,3′-diaminobenzidine substrate kit (Vector Laboratories, Burlingame, Calif.). The immunoreactive bands were quantified by densitometry using Image-Pro Plus software (Media Cybernetics, Silver Spring, Md.). […]
(In general: In western blotting, separated proteins are transferred to a membrane and probed.)

For a further experiment, the system named is H838. The experiment in a line: CCK-8 cell viability assay. Format: cell-based, human. The following applies: 48 h treatment, mean ± S.E.M., wild-type Ras. As to the method:
(§1) Human hepatoma (HepG2, Hep3B), human lung adenocarcinoma (A549, H838), and human myelogenous leukemia (K562) cell lines were obtained from American Type Culture Collection (Rockville, Md., USA). Human prostate cancer cell lines (LNCaP and DU145), human breast carcinoma (MCF-7), human bladder carcinoma (TSGH 8301) and human pancreas adenocarcinoma (BxPC-3) were obtained from BCRC (Bioresource Collection and Research Center, Hsinchu, Taiwan). HepG2, DU145 and MCF-7 cell lines were cultured in Minimum Essential Medium Alpha (Invitrogen/Gibco BRL, Grand Island, N.Y., USA). A549 cells were cultured in Dulbecco's modified Eagle's medium (Invitrogen/Gibco BRL). H838, TSGH 8301, BxPC-3 LNCaP and K562 cell lines were cultured in RPMI-1640 medium (Invitrogen/Gibco BRL). All cells were cultured at 37° C. in 5% CO2 in culture media supplemented with 10% fetal bovine serum (FBS) (Invitrogen/Gibco BRL) and 100 U/ml streptomycin and penicillin (Invitrogen/Gibco BRL). For treatment, cells were seeded in six-well plates at 6.25×10^5 cells/well. On the following day, the media was changed to serum-free media, and cells were serum-starved for 24 h. Compound 1 was dissolved in DMSO and diluted to the required concentration in serum-free medium. Cultures were then treated with diluted Compound 1 as indicated. After treatment, cells were washed with cold phosphate-buffered saline (PBS) and lysed using RIPA buffer containing phosphatase and protease inhibitors.
(§2) Cell Counting Kit-8 (CCK-8) allows sensitive colorimetric assays for the determination of cell viability in cell proliferation and cytotoxicity assays. The detection sensitivity of CCK-8 is higher than the other tetrazolium salts such as MTT, XTT, MTS or WST-1.
(§3) Cell viability was measured using Cell Counting Kit-8 (CCK-8, Enzo Life Sciences, Farmingdale, N.Y.). In this assay, WST-8 is reduced by dehydrogenases in cells to produce a yellow-colored product (formazan), which is soluble in culture medium. The amount of formazan generated is directly proportional to the number of living cells. After treatment, CCK-8 solution was added to each well and incubated for 4 h. The concentration of formazan was measured with a spectrophotometer at an absorbance wavelength of 450 nm. Cell viability was expressed as a percentage of the corresponding control.
(§4) To determine whether the cytotoxic effects of Compound 1 correlate with the presence of Ras mutations, cell lines derived from human lung cancer (A549 and H838), liver cancer (HepG2 and Hep3B), and leukemia (K562 and THP-1) with wild-type Ras (H838, Hep3B, and K562) or mutant Ras (A549, HepG2, and THP-1) were used. Cell viability was measured after 48 h of Compound 1 treatment.
For orientation: Tetrazolium dyes change colour on reduction, which living cells bring about.

A further experiment relates to A549. The experiment in a line: CCK-8 cell viability assay. Format: cell-based. To be noted: Homo sapiens, 48 h treatment, mean ± S.E.M., mutant Ras. As to the method:
as §1, §2, §3, §4

The next experiment deals with Hep3B. The experiment in a line: CCK-8 cell viability assay. Format: cell-based. The following applies: Homo sapiens, 48 h treatment, mean ± S.E.M., wild-type Ras. On the procedure: as §1, §2, §3, §4
The subject of the next experiment is HepG2. The experiment in a line: CCK-8 cell viability assay. The following applies: Homo sapiens, 48 h treatment, mean ± S.E.M., mutant Ras. Format: cell-based. As to the method: as §1, §2, §3, §4
The subject of a further experiment is K562. The experiment can be described thus: CCK-8 cell viability assay. In kind it is cell-based. To be noted: Homo sapiens, 48 h treatment, mean ± S.E.M., wild-type Ras. As to the method:
as §1, §2, §3, §4

In a further experiment the test system is THP-1. The experiment in a line: CCK-8 cell viability assay. In kind it is cell-based. The following applies: Homo sapiens, 48 h treatment, mean ± S.E.M., mutant Ras. On the procedure: as §2, §3, §4

As to `CC(C)=CCC/C(C)=C/CC/C(C)=C/COP(=O)(O)OP(=O)(O)O` [FPP, farnesyl pyrophosphate], the “concentration of FPP that neutralized the effect of Compound 1 on Ras processing” value with Ras processing is not below 10 µM.

The IC50 is the concentration that gives 50% inhibition. A higher IC50 goes with weaker potency. In turn, `COC1=CC(O)C(C/C=C(\C)CC/C=C(\C)CCC=C(C)C)C(C)C1=O` (centres unmarked) [Compound 26, 4-hydroxy-2-methoxy-6-methyl-5-((2E,6E)-3,7,11-trimethyldodeca-2,6,10-trienyl)cyclohex-2-enone] returned a half-maximal inhibitory concentration (IC50) in the experiment on H838 (Homo sapiens, NCI-H838, 48 h) of 11.3 ± 4.17 µM.

Take `COC1=C(OC)C(O)C(C/C=C(\C)CCC(=O)O)C(C)C1=O` (centres unmarked) [Compound 27]: in the experiment with H838 (Homo sapiens, NCI-H838, 48 h), the IC50 was more than 100 µM.

Turning to `COC1=C(OCc2ccccc2)C(=O)C(C)C(C/C=C(\C)CC/C=C(\C)CCC=C(C)C)C1O` (centres unmarked) [Compound 30], the half-maximal inhibitory concentration (IC50) with A549 was found to be 22.6 ± 2.24 µM; with Hep3B, 9.06 ± 3.03 µM; in the experiment with HepG2 it was 27 ± 6.06 µM; in the experiment on H838 (Homo sapiens, NCI-H838, 48 h) it was 25.6 ± 6.54 µM.

Take `COC1=C(OCc2ccccc2)C(O)C(C/C=C(\C)CC/C=C(\C)CCC=C(C)C)C(C)C1=O` (centres unmarked) [Compound 31]: the IC50 came out at 6.68 ± 0.75 µM in the experiment on A549; 7.46 ± 7.06 µM in the experiment with Hep3B; 8.98 ± 0.97 µM in the experiment on HepG2; 3.41 ± 1.43 µM in the experiment with H838 (Homo sapiens, NCI-H838, 48 h).

With `COC1=C(OC)C(OC(C)=O)C(C/C=C(\C)CC/C=C(\C)CCC=C(C)C)C(C)C1=O` (centres unmarked) [Compound 29], in the experiment on H838 (Homo sapiens, NCI-H838, 48 h), the IC50 is more than 100 µM.

As for `COC1=C(OC)C(O)C(C/C=C(\C)CC/C=C(\C)CCC=C(C)C)C(C)C1=O` (centres unmarked) [Compound 1, 4-hydroxy-2,3-dimethoxy-6-methyl-5-(3,7,11-trimethyldodeca-2,6,10-trienyl)cyclohex-2-enone], the IC50 stood at 3.24 µM in the experiment with A549; 3.74 µM in the experiment with Hep3B; 6.42 µM in the experiment with HepG2; 5.12 µM with K562; 2.96 ± 0.05 µM in the experiment with H838; 3.32 µM in the experiment with H838 (Homo sapiens, NCI-H838, 48 h). The IC50 with THP-1 came out at 2.22 µM.

`COC1=C(OC)C(OC(C)=O)C(C/C=C(\C)CC/C=C(\C)CC2CC(C)C(=O)O2)C(C)C1=O` (centres unmarked) [Compound 28]: the IC50 in the experiment on H838 (Homo sapiens, NCI-H838, 48 h) was more than 100 µM.
